Measured values published in patent US9439979B2, “Epidermal growth factor receptor (EGFR) and methods of use in adenoviral-associated virus type 6 (AAV6) transduction” (priority 2010, dated 2016).

Key:
HEK293T cells = assay type: cell-based, human; settings: inhibitor 10 μm; for effect on AAV2 transduction of HEK293T cells: same conditions
Description: (§1) AAV transduction and pharmacological inhibition. The 32D and 32D-EGFR cells were transduced with 1.0E4 genomic particle (gp)/cell with each of the AAV serotypes tested. Cells were analyzed for GFP expression by FACS analysis at 96 hours posttransduction. The HEK293T, HN12 and HEp-2 cells, shown to be permissive to AAV2 and/or AAV6, were used to evaluate the specific role of EGFR in AAV-mediated transduction. Cells were incubated at 37° C. in the presence or absence of AG1478 (10 μm) or gefitnib (10 μm) for 30 minutes prior to addition of AAV. AAV2 and AAV6 containing the CMV-NLS-eGFP construct were added at a concentration of 1.0×10^4 gp/ml for 90 minutes.

HEp-2 cells = assay: AAV transduction and pharmacological inhibition in HEp-2 cells; assay type: cell-based
Description: (§2) In vitro transduction of HEp-2 and HN12 cells with AAV2 and AAV6 in the presence or absence of the EGFR inhibitor, AG1478, was studied. […] Transduction of HN12 cells in the presence of AG1478 was reduced by 77% (***p<0.0005, n=3).
as §1
(§3) Increased expression of EGFR correlates with aggressive head and neck squamous cell carcinoma (HNSCC) tumor growth and resistance to treatment (Thariat, J., et al., Int. J. Clin. Oncol., 12: 99-110 (2007)). The utility of AAV6 to transduce and ablate specific HNSCCs presenting with elevated EGFR expression was assessed by gene-directed enzyme prodrug therapy. Two HNSCC cell lines, HN12 and HEp-2 were selected to represent polarities of EGFR expression.

HN12 cells = assay: AAV transduction and pharmacological inhibition in HN12 cells; assay type: cell-based
Description: as §2, §1, §3

Row | Compound | inhibition of AAV6 transduction of HEK293T cells (HEK293T cells; 30 minutes preincubation, AAV6-CMV-eGFP, FACS 48 hours) [%] | effect on AAV2 transduction of HEK293T cells (HEK293T cells) | effect on AAV6 transduction of HEp-2 cells (HEp-2 cells; in the presence of AG1478) | effect on AAV2-mediated transduction of HEp-2 cells (HEp-2 cells; presence or absence of AG1478) | reduction of AAV6 transduction of HN12 cells (HN12 cells; in the presence of AG1478 (10 μm), FACS 96 hours) [%] | effect on AAV2-mediated transduction of HN12 cells (HN12 cells; presence or absence of AG1478)
1 | AG1478 | 50 | unchanged | not altered | no significant (NS) difference | 77 | no significant (NS) difference
2 | COc1cc2ncnc(Nc3ccc(F)c(Cl)c3)c2cc1OCCCN1CCOCC1 [gefitinib] |  | unchanged |  |  |  | 
